IC50 data for 2 compounds are collected here from ChEMBL document CHEMBL1201862, “PubChem BioAssay data set” (2004).

The source made the active and inactive calls. Cut-off read from the data, not from the text of the source: actives have a measured IC50 and inactives only a lower limit.

The target of this assay is Envelope glycoprotein gp160 (Human immunodeficiency virus 1, UniProt Q6QLK5). Put plainly: cell-free HIV fusion peptide-binding blockers – biochemical, uHTS, fluorescence dequenching, […] (AID 1986).
Chain of Envelope glycoprotein gp160 (Q6QLK5 whole entry, the tested form may be a part): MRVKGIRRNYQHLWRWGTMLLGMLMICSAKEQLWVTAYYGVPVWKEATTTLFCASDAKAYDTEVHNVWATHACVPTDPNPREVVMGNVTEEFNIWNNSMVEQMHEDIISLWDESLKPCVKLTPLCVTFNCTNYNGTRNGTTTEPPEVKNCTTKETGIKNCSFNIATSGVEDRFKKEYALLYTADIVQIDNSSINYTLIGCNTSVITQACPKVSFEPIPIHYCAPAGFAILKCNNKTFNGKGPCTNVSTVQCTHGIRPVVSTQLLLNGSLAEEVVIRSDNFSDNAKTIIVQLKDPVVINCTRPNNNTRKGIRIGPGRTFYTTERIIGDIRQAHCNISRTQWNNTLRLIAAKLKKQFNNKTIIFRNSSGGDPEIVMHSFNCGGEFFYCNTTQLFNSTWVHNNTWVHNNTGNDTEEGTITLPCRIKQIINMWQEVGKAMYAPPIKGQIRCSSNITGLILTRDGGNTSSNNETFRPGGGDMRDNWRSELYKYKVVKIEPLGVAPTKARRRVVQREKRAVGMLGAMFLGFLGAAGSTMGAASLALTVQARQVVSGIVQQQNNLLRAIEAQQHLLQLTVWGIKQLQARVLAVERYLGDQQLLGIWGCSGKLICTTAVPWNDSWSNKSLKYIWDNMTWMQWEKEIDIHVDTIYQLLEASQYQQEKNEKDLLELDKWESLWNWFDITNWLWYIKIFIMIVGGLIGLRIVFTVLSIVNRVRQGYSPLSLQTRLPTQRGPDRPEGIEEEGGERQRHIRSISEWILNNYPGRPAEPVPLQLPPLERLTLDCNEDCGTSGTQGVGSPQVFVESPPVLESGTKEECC

For `CCOC(=O)c1c(N2C(=O)Nc3cc(Cl)c(Cl)cc3N2O)sc2c1CCCCC2`, the half-maximal inhibitory concentration (IC50) (as a rule, the concentration that gives 50% inhibition) is 22.3 µM (active). The result for `COc1ccc(C(=O)Nc2ccccc2C(=O)O)cc1NC(=O)C(c1ccccc1)c1ccccc1` reads 14.1 µM (active).
